Results reported in US8653031B2, “Process for the preparation of compositions of AT1 receptor antagonist and Angiotensin—(1-7)” (Universidade Federal de Minas Gerais, priority 2006, dated 2014).

Tests used:
ACE = ACE (Homo sapiens, UniProt P12821); conditions: read-out: IC50 for ACE inhibition; cited from earlier work
[1] = tested on: spontaneously hypertensive rats (SHR); assay: Antihypertensive test: blood pressure recorded by telemetry in SHR after oral administration; type: in vivo, rat
Description: Male, spontaneously hypertensive rats (SHR) were used, with initial age of 14-16 weeks, from the Centro de Bioterismo (CEBIO, Federal University of Minas Gerais). The animals were kept with free access to food and water and were submitted to a light-dark cycle (12 hours each).
After anesthesia with tribromoethanol (0.25 g/Kg body weight), trichotomy of the abdominal region and local asepsis was made. After adjustment of the surgical field, a median incision of 4 to 6 cm was performed in the abdomen with the implantation of the transducer catheter in the abdominal aorta. After surgery, a veterinary pentabiotic was administered (0.1 ml) via intramuscular route (i.m.). […]
Records of the cardiovascular parameters, average blood pressure and heart rate were obtained by a telemetry data acquisition system (Data Science International). This monitoring system consists of 4 basic elements: (A) a sensor catheter (model—TA11PA-C40) which was inserted into the animal's abdominal aorta for collection, processing and transmission of pulsatile blood pressure; (B) a receiving signal plate (RPC-1); (C) a muliplexor that received the signal from several receiving plates and sent them to (D) the data acquisition system itself, which collected, stored and analyzed the data by means of a specific software, ART-Gold v. […]
The acute cardiovascular effects of administering the LA compound were determined. […]

Chain of ACE (P12821 30-1306, species assumed): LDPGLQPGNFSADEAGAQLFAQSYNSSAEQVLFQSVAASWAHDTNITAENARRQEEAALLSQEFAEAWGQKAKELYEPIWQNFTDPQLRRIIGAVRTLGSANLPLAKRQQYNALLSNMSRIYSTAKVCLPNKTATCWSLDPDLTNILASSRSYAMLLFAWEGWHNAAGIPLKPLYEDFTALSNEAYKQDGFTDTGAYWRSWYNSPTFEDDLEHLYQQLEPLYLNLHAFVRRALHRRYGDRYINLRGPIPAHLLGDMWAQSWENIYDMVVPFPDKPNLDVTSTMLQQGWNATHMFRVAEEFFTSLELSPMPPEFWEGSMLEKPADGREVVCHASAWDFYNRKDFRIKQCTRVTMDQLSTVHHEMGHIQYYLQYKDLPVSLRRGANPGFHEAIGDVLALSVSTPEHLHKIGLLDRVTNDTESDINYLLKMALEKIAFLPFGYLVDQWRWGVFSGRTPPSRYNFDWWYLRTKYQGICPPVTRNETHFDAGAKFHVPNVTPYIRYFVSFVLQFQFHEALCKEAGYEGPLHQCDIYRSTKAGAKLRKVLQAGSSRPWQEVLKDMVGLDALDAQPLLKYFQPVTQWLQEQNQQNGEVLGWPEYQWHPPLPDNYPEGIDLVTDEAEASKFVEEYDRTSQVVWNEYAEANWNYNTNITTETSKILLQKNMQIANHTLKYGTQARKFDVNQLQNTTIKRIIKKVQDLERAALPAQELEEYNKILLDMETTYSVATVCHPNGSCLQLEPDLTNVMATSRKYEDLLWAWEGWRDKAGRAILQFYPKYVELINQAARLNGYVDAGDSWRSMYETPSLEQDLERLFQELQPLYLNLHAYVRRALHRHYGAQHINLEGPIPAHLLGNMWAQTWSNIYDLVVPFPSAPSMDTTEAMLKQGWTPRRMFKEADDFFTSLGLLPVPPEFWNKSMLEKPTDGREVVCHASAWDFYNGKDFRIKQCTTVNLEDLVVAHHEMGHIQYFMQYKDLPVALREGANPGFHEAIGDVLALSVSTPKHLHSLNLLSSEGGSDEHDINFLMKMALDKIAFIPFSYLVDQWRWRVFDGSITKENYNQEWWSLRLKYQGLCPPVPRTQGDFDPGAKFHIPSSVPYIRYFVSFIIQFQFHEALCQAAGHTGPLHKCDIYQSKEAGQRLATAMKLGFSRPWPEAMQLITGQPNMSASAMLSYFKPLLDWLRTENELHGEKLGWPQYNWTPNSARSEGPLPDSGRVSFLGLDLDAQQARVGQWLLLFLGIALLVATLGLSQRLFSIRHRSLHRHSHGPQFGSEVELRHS

Row | Compound | IC50 (ACE) | reduction in the average blood pressure ([1]; n=2, single oral dose equivalent to 1 mg Kg/day of losartan, after 5 hours (maximum for test compound)) | duration of the blood pressure lowering effect ([1]; single oral dose equivalent to 1 mg Kg/day of losartan)
1 | DRVYIHP [Ang-(1-7), Asp-Arg-Val-Tyr-Ile-His-Pro, heptapeptide of the renin-angiotensin system] | ~1 µM | – | –
2 | CCCCc1nc(Cl)c(CO)n1Cc1ccc(-c2ccccc2-c2nn[nH]n2)cc1 [losartan] | – | −10 mmHg | 12 h
